PMC11995724, “Antibiotic target discovery by integrated phenotypic and activity-based profiling of electrophilic fragments” (Cell chemical biology, 2025)
Counter-ions that a name gives are not always drawn.

Assay: in vitro
Conditions: human, hek293t cells

SMILES	viability at 48 h, 25 µM [%]
CC(C)C(=O)Nc1ccc(C(=O)CCl)cc1 [10-D04, N-[4-(2-chloroacetyl)phenyl]-2-methylpropanamide]	30.8
N#Cc1c(NC(=O)CCl)oc(-c2ccco2)c1-c1ccco1 [5-D10, 2-chloro-N-[4'-cyano-2'-(furan-2-yl)-[2,3'-bifuran]-5'-yl]acetamide]	45.5
C=CC(=O)NC(C)c1cnc(C(F)(F)F)s1 (stereo not drawn) [2-A05, N-{1-[2-(trifluoromethyl)-1,3-thiazol-5-yl]ethyl}prop-2-enamide]	73.5
CN1C=CC(=C(C#N)C(=O)CCl)C=C1 [10-G21, 4-chloro-2-(1-methyl-1,4-dihydropyridin-4-ylidene)-3-oxobutanenitrile]	1.3
Cc1cc(C(=O)CCl)c(C)n1CCc1ccc(F)cc1 [10-G14, 2-chloro-1-{1-[2-(4-fluorophenyl)ethyl]-2,5-dimethyl-1H-pyrrol-3-yl}ethan-1-one]	0.499
CC(Cl)C(=O)N(C)CC(=O)Nc1ccccc1C(F)(F)F (stereo not drawn) [4-N05, 2-chloro-N-methyl-N-({[2-(trifluoromethyl)phenyl]carbamoyl}methyl)propanamide]	79.8
CC(Cl)C(=O)Nc1ccc(SC(F)F)cc1 (stereo not drawn) [4-L09, 2-chloro-N-{4-[(difluoromethyl)sulfanyl]phenyl}propanamide]	71.9
Cc1cc(C(=O)CCl)c(C)n1-c1ccon1 [10-F06, 2-chloro-1-[2,5-dimethyl-1-(1,2-oxazol-3-yl)-1H-pyrrol-3-yl]ethan-1-one]	1.56
CCn1c2ccccc2c2cc(NC(=O)C(C)Cl)ccc21 (stereo not drawn) [4-E12, 2-chloro-N-(9-ethyl-9H-carbazol-3-yl)propanamide]	55.6
C=CC(=O)Nc1nn(C2CCCC2)c(C)c1Cl [1-O06, N-(4-chloro-1-cyclopentyl-5-methyl-1H-pyrazol-3-yl)prop-2-enamide]	78.2
Cc1cccc(C=C(C#N)C(=O)NC2CCCCC2)c1 [8-K07, 2-cyano-N-cyclohexyl-3-(3-methylphenyl)prop-2-enamide]	45
O=C(CCl)NC1CCCc2c1cnn2Cc1ccccc1 (stereo not drawn) [7-F20, N-(1-benzyl-4,5,6,7-tetrahydro-1H-indazol-4-yl)-2-chloroacetamide]	0.873
C=CC(=O)NCc1oc(CC)nc1C [3-P15, N-[(2-ethyl-4-methyl-1,3-oxazol-5-yl)methyl]prop-2-enamide]	74.7
C=CC(=O)N1CCC(C(=O)N2CCCC2C2OCCO2)CC1 (stereo not drawn) [2-L12, 1-{4-[2-(1,3-dioxolan-2-yl)pyrrolidine-1-carbonyl]piperidin-1-yl}prop-2-en-1-one]	48.7
C=CC(=O)N1CCC(C(=O)NCCc2c(C)n[nH]c2C)CC1 [2-D04, N-[2-(3,5-dimethyl-1H-pyrazol-4-yl)ethyl]-1-(prop-2-enoyl)piperidine-4-carboxamide]	88.7
C=CC(=O)NCc1cnc(N2CCOCC2)s1 [1-M03, N-{[2-(morpholin-4-yl)-1,3-thiazol-5-yl]methyl}prop-2-enamide]	86.3
COc1ccc(NC(=O)C(C#N)=CC=Cc2ccccc2)cc1Cl [8-M18, N-(3-chloro-4-methoxyphenyl)-2-cyano-5-phenylpenta-2,4-dienamide]	75.7
O=C(CCl)NCc1cc(C(F)F)no1 [6-H08, 2-chloro-N-{[3-(difluoromethyl)-1,2-oxazol-5-yl]methyl}acetamide]	5.77
CC(Cl)C(=O)NCCc1ccccc1 (stereo not drawn) [4-K14, 2-chloro-N-(2-phenylethyl)propanamide]	102
COc1ccc(-c2csc(NC(=O)CCl)n2)c(O)c1 [4-A11, 2-chloro-N-[4-(2-hydroxy-4-methoxyphenyl)-1,3-thiazol-2-yl]acetamide]	-0.257
O=C(CCl)Nc1ccccn1 [5-B14, 2-chloro-N-(pyridin-2-yl)acetamide hydrochloride]	73.1
